Patent US8455510B2

What was measured:
[1] = tested on: human prostate cancer PC-3 xenograft; test: PC-3 xenograft on nude mice; settings: 1-5 × 3.5 w; for TV (mm3) d0: baseline
[2] = target: T1, FKBP-12 protein (Homo sapiens, UniProt P62942); test: SPR (surface plasma resonance) binding with FKBP-12
T1 construct: purchased sigma Co
Experimental: (1) FKBP-12 protein was purchased from sigma Co.
(2) HBS-EP buffer solution (10 mM Hepes, 150 mM NaCl, 3.4 mM EDTA, 0.005% (v/v) surfactant P20, pH 7.4)
(3) Activating reagents EDC and NHS, and blocking reagents Ethanolamine, etc., were purchased from BIACORE AB Co. (Uppsala, Sweden).
(4) BIAcore 3000 and CM5 chip were purchased from BIACORE AB Co. (Uppsala, Sweden).
(2) […] was coupled to the FC2 channel on CM5 chip by using the Wizard for amino-coupling in Biacore 3000 controlling soft. 3.3 g/L of FKBP-12 protein was diluted with 10 mM NaAC (pH 4.6) to 66 μg/ml. The surface of the chip was washed by injecting a mixture of 0.1M1-(3-dimethylaminopropyl)-3-ethylcarbodiimide hydrochloride (EDCI) and 0.1M N-hydroxysuccinimide (NHS) (1:1) at a flow rate of 20 μL/min for 7 min. After that, the protein solution was injected, and then a 1M cholamine (pH 8.5) solution was fed for 7 min to block the activated surface of the chip. Preliminary screening and pharmacokinetic tests on the compounds
The binding abilities of small molecular compounds with FKBP-12 protein were evaluated by SPR (surface plasma resonance). The stock solution of the compound was 10 mM, and was diluted by HBS-EP buffer solution at given ratios. Pharmacokinetic tests were carried out by the Wizard for kinetic analysis in Biacore 3000 controlling soft. The resulted data were fitted by 1:1 Langmuir binding model or stability model in Biacore 3000 analytical soft to obtain the exact kinetic and thermodynamic constants.

[3] = tested on: acute graft-versus-host disease (aGVHD); test: Acute graft-versus-host disease (aGVHD) mouse model; format: in vivo, C57B/6 mice; settings: 1.5 mg/kg/d, intraperitoneal injection, FIG. 15
Experimental: Donator: BABL/C mice; acceptor: C57B/6 mice.
C57B/6(H-2^b) mice, female, 7 weeks old, were used as the acceptor mice to receive 8.5 Gy of total body irradiation in a Gammacell.
After the acceptor mice received irradiation for 4 to 6 hours, the heterogenetic bone marrow transplantation was carried out.
BABL/C(H-2^d) mice, female, 4 weeks old were used as the donator mice. The bone marrow cells in long bone of the mice limbs and the spleen lymphocytes were collected and suspended in a PBS buffer solution respectively by adjusting the cell concentration to 1×10^8.
The two kinds of cells were mixed equivalently to prepare a mixed cell suspension. Each acceptor mouse was intravenously injected with 0.5 ml of the suspension.
Mice were randomly divided into 3 groups with 10 mice in each group. Mice were administered once daily from the first day when the bone marrow transplantation was carried out.
Y-31 group (1.5 mg/kg/d, intraperitoneal injection)
(1) Body weight: weighted once daily;
(2) The survival time of the mice after BMT was recorded.

[4] = tested on: bovine type II collagen-induced arthritis; test: Bovine type II collagen-induced arthritis; format: in vivo, DBA/1 mice; settings: 1 mg/kg, from 14th day after attack, 3 weeks, FIG. 16, P<0.05

T1 sequence (P62942 whole entry, species assumed): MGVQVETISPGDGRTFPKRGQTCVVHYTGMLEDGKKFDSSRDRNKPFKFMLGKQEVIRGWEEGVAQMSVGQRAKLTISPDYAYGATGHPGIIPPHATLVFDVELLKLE

## CO[C@H]1C[C@@H]2CC[C@@H](C)[C@@](O)(O2)C(=O)C(=O)N2CCCC[C@H]2C(=O)O[C@H]([C@H](C)C[C@@H]2CC[C@@H](O)[C@H](OC)C2)CC(=O)[C@H](C)/C=C(\C)[C@@H](O)[C@@H](OC)C(=O)[C@H](C)C[C@H](C)/C=C/C=C/C=C/1C [Rapamycin]
[1]; Table 3, 2.5 mg/kg p.o
  Body Weight (g) end: 21.8 g
  Body Weight (g) start: 19.8 g
  RTV: 3.03 ± 1.5
  T/C (%): 46.5%
  TV (mm3) d21: 277 ± 98 mm3
  TV (mm3) d0: 100 ± 39 mm3
[1]; Table 3, 5 mg/kg p.o
  Body Weight (g) end: 22.2 g
  Body Weight (g) start: 22.2 g
  RTV: 2.0 ± 1.2
  T/C (%): 30.9%
  TV (mm3) d21: 170 ± 88 mm3
  TV (mm3) d0: 96 ± 38 mm3

## CO[C@H]1C[C@@H]2CC[C@@H](C)[C@@](O)(O2)C(=O)C(=O)N2CCCC[C@H]2C(=O)O[C@H]([C@H](C)C[C@@H]2CC[C@@H](OC(=O)OCC(O)CO)[C@H](OC)C2)CC(=O)[C@H](C)/C=C(\C)[C@@H](O)[C@@H](OC)C(=O)[C@H](C)C[C@H](C)/C=C/C=C/C=C/1C (stereo partly drawn) [Y31]
[2]
  binding with FKBP12: concentration-dependently bind
[2]; FKBP12
  Kd: 0.1 nM
  koff: 0.11 × 10^−3 S^−1
  kon: 1.05 × 10^6 M^−1S^−1
[2]; at the same concentration
  R^U (Response Unit) compared with rapamycin: higher
[2]; compared with rapamycin
  concentration to reach the saturation state for the binding with FKBP12: lower than that for rapamycin
[3]
  effect on the survival rate of the aGVHD mice: markedly increase the survival rate
  effect on the weight loss caused by aGVHD: significantly alleviate the weight loss
[4]
  effect on the severe degree of CIA (arthritis score): significantly reduce the severe degree of CIA
